From article PMC7580722, “Design of new disubstituted imidazo[1,2-b]pyridazine derivatives as selective Haspin inhibitors. Synthesis, binding mode and anticancer biological evaluation” (Journal of Enzyme Inhibition and Medicinal Chemistry, 2020)

Legend:
HsCDK1 = molecular target: T1, HsCDK1 (Homo sapiens, UniProt P06493); experiment: CDK1 kinase assay; type: biochemical
T1 construct: purchased ProQinase
Protocol: We therefore tested our compounds on two obvious candidates, HsCDK1 and HsPLK1 (Polo-like_kinase 1) both required for mitotic entry[50]
(§1) Values are IC50 expressed in µM and calculated from dose–response curves (each point from the curves was performed in duplicate). NR: not relevant. […]
(§2) Recombinant protein kinases were expressed and purified from E. coli (HsHaspin kinase domain aa470-798, HsCdk5/p25, RnDYRK1A kinase domain aa1-499, HsPIM1, MmCLK1) or baculovirus/Sf9 cells (HsCdk2/Cyclin A, HsCdk9/Cyclin T). Native SscCK1δ /ε and SscGSK3α/β were purified from pig brain whereas HsPlk1, HsCdk1 and HsAurora B were purchased from ProQinase and SignalChem respectively. Kinase assays were performed in specific buffers and substrates for each kinase tested in the presence of 15 µM [γ-33P] ATP (3,000 Ci/mmol, 10 mCi/ml; PerkinElmer) in a final volume of 30 µl as previously reported 51. After 30 min incubation at 30°C, the reaction mix was spotted onto GE healthcare P81 phosphocellulose paper using a FilterMate Harvester (PerkinElmer), and the filter was extensively washed with a 1% phosphoric acid solution. The wet filter-bound radioactivity was determined in the presence of 20 µl scintillation fluid (GE healthcare) with a TopCount® Scintillation and Luminescence Counter (PerkinElmer). IC50 values were calculated from dose-response curves

[1] = tested on: Haspin activity (H3T3ph) in U-2 OS cells; experiment: In-cell Haspin activity, H3T3ph immunofluorescence; type: cell-based, human; settings: 24 h
HsPLK1 = molecular target: T2, HsPLK1 (Homo sapiens, UniProt P53350); experiment: PLK1 kinase assay; type: biochemical; settings: Table 4
T2 construct: purchased ProQinase
T2 sequence (P53350 whole entry): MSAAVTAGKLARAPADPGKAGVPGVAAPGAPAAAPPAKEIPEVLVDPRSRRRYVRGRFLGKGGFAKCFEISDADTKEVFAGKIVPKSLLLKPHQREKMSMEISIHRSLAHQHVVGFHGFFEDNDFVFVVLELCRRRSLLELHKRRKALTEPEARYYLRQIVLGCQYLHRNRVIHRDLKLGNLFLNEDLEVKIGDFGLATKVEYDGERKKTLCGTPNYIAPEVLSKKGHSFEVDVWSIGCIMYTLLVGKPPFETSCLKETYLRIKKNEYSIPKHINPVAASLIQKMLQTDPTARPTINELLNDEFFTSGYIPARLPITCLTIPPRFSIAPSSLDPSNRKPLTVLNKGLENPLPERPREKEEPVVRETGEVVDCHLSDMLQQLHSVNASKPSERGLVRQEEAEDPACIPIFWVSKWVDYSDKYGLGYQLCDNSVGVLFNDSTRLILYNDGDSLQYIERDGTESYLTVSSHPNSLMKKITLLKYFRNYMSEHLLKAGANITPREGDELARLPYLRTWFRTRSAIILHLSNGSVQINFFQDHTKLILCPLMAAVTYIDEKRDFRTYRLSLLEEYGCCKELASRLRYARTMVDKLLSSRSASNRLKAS
Protocol: . We therefore tested our compounds on two obvious candidates, HsCDK1 and HsPLK1 (Polo-like_kinase 1) both required for mitotic entry[50] (Table 4).
as §1, §2

HBL100 = experiment: Cell viability, monolayer (2D), MTS assay; type: cell-based; settings: Homo sapiens, HBL-100, 48 h
U-2 OS = experiment: Cell viability, monolayer (2D), MTS assay; type: cell-based; settings: Homo sapiens, U2OS, 48 h
HCT116 = experiment: Cell viability, monolayer (2D), MTS assay; type: cell-based; settings: Homo sapiens, HCT-116, 48 h

T1 sequence (P06493 whole entry): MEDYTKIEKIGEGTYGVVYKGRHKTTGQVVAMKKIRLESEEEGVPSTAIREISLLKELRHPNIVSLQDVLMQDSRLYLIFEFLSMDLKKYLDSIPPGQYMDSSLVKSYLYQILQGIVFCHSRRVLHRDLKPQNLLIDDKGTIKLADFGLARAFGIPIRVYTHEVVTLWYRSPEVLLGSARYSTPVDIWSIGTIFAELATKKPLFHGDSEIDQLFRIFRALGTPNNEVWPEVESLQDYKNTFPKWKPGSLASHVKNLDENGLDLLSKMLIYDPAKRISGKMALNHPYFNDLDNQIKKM
T1 sequence (P14635 whole entry partner): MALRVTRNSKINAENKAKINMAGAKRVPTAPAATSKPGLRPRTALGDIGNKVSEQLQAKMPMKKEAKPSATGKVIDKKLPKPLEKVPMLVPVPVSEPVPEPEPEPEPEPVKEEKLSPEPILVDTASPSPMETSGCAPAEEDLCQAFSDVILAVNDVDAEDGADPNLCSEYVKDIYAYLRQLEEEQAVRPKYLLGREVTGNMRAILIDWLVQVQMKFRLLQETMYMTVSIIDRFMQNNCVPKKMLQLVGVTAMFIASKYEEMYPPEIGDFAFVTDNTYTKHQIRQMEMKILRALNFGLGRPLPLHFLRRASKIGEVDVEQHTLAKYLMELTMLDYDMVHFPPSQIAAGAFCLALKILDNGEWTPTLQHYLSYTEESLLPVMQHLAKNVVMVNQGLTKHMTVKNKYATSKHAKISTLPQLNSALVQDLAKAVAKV

SI CDK1/Haspin (HsCDK1; SI = IC50 CDK1/IC50 Haspin): 392
IC50 (HsCDK1; Table 4, read-out: IC50 HsCDK1): 2.35 µM
IC50 (HsPLK1): > 10 µM
EC50 (HCT116): > 10 µM
Compound: c1cc2[nH]ncc2cc1-c1cnc2ccc(OC[C@@H]3CNCCO3)nn12 [Compound 21]
H3T3ph signal remaining in prometaphase cells (% of ctrl) ([1]; 0.5 µM): 2.4%
inhibition at 0.05 µM ([1]; Homo sapiens, U2OS, 0.05 µM, read-out: inhibition of cellular Haspin activity): > 80%
EC50 (HBL100): > 10 µM
EC50 (U-2 OS): 5.2 µM
